Laboratory results from paper PMC11237774, “On-target, dual aminopeptidase inhibition provides cross-species antimalarial activity” (mBio, 2024).
Like-named read-outs stand apart in the source and are kept apart here.

What was measured:
[1] = Binding to Albumax medium by ultracentrifugation; format: in vitro ADME
Method: Human plasma was obtained from the Volunteer Blood Donor Registry (Walter & Eliza Hall Institute, Melbourne, Australia), rat plasma was from male Sprague-Dawley rats (Animal Resource Centre, Perth, Western Australia) and mouse plasma was procured as described above. RPMI-1640 media supplemented with 25 mM HEPES, 2 g/L sodium bicarbonate, and 100 mg/L neomycin were additionally supplemented with 5 […] on the day prior to binding assessment. […] Additional aliquots of spiked matrix were maintained at 37°C for 4.2 h but not centrifuged to serve as controls for stability assessment and to obtain a measure of the total concentration in each matrix. Following centrifugation, aliquots of the protein-free supernatant and the non-centrifuged matrix controls were “matrix matched” by addition of an equal volume of the opposite medium (i.e., either blank buffer or blank matrix) and assayed as described above with comparison to calibration standards prepared in 50% matrix/50% PBS.

[2] = Metabolic stability in liver microsomes; format: in vitro ADME; settings: read-out: in vitro microsomal CLint
Method: Samples were collected over the incubation period, quenched by the addition of an equal volume of acetonitrile, and analyzed using a Waters Acquity UPLC and Xevo G2 QTOF mass spectrometer with positive electrospray ionization under the MS^E mode. The natural log of the substrate concentration was plotted against the incubation time to determine the first-order degradation rate constant which was normalized to the microsomal protein concentration to give the in vitro intrinsic clearance (in vitro CLint, µL/min/mg microsomal protein). […] Cell viability was determined by Trypan Blue exclusion. At various times over the incubation period, samples were quenched with the addition of an equal volume of acetonitrile and analyzed as described above. Metabolite identification was conducted by accurate mass and tandem mass spectrometry (MS/MS) analysis.

[3] = target: human aminopeptidase N (APN or CD13); parameters: method as in PMID 30537832; settings: cited from earlier work
PfA-M17 = target: T1, PfA-M17 (Plasmodium falciparum, UniProt Q8IL11); test: Recombinant aminopeptidase fluorescence assay (H-Leu-NHMec); format: biochemical, P. falciparum; settings: Pf M17, Morrison equation; read-out: Ki^(app) ± SEM
T1 construct: made in house
Method: Inhibition of aminopeptidase activity assays were performed against nine aminopeptidases: the M1 alanyl and M17 leucyl aminopeptidases from P. falciparum (PfA-M1; PfA-M17), P. vivax (Pv-M1; Pv-M17), and P. berghei (Pb-M1; Pb-M17), and three human M1 homologs: LTA4H (OriGene TP307617), ERAP1 (OriGene TP314469), and ERAP2 (Creative BioMart ERAP2-304H). The Plasmodium enzymes were produced recombinantly as described previously ([16], [17]), and the human recombinant enzymes were purchased from commercial suppliers as indicated.
The concentration of H-Leu-NHMec in the assay was held constant for each enzyme and ranged from 10 to 100 µM, depending on the enzyme. Reactions were measured at 37°C in white 384-well plates in a total volume of 25 or 50 µL using a spectrofluorimeter (BMG FLUOstar) with excitation at 355 nm and emission at 460 nm. The fluorescence signal was continuously monitored until a final steady-state velocity, v, was obtained. Inhibition constants were calculated from biological triplicates made from three different protein preparations.
Substrate concentrations were selected to allow sensitive detection of enzyme activity while not exceeding the Km for each enzyme. A compound concentration range was selected to obtain a complete inhibition curve (0%–100 %) in biological triplicate. Where possible, the Ki values were calculated by plotting the initial rates versus inhibitor concentration and fitting to the Morrison equation for tight-binding inhibitors in GraphPad Prism (V.8.4.1; non-linear regression method).

MMP-9 = target: T2, MMP-9 (Homo sapiens, UniProt P14780); test: Eurofins Cerep safety pharmacology screening; format: biochemical; settings: read-out: Mean % inhibition (n=2); MMP-9, 10 µM
T2 construct: Eurofins Cerep (contract screen)
From the text: (§1) Results showing any inhibition or stimulation higher than 50% are considered to represent significant effects of the test compounds.

MMP-3 = target: T3, MMP-3 (Homo sapiens, UniProt P08254); test: Eurofins Cerep safety pharmacology screening; format: biochemical; settings: read-out: Mean % inhibition (n=2); MMP-3, 10 µM
T3 construct: Eurofins Cerep (contract screen)
From the text: as §1

HDAC2 = target: T4, HDAC2 (Homo sapiens, UniProt Q92769); test: Eurofins Cerep safety pharmacology screening; format: biochemical; settings: read-out: Mean % inhibition (n=2); HDAC2, 10 µM
T4 construct: Eurofins Cerep (contract screen)
From the text: as §1

HDAC1 = target: T5, HDAC1 (Homo sapiens, UniProt Q13547); test: Eurofins Cerep safety pharmacology screening; format: biochemical; settings: read-out: Mean % inhibition (n=2); HDAC1, 10 µM
T5 construct: Eurofins Cerep (contract screen)
From the text: as §1

MMP-14 = target: T6, MMP-14 (Homo sapiens, UniProt P50281); test: Eurofins Cerep safety pharmacology screening; format: biochemical; settings: read-out: Mean % inhibition (n=2); MMP-14, 10 µM
T6 construct: Eurofins Cerep (contract screen)
From the text: as §1

HDAC10 = target: T7, HDAC10 (Homo sapiens, UniProt Q969S8); test: Eurofins Cerep safety pharmacology screening; format: biochemical; settings: read-out: Mean % inhibition (n=2); HDAC10, 10 µM
T7 construct: Eurofins Cerep (contract screen)
From the text: as §1

MMP-2 = target: T8, MMP-2 (Homo sapiens, UniProt P08253); test: Eurofins Cerep safety pharmacology screening; format: biochemical; settings: read-out: Mean % inhibition (n=2); MMP-2, 10 µM
T8 construct: Eurofins Cerep (contract screen)
From the text: as §1

HDAC7 = target: T9, HDAC7 (Homo sapiens, UniProt Q8WUI4); test: Eurofins Cerep safety pharmacology screening; format: biochemical; settings: read-out: Mean % inhibition (n=2); HDAC7, 10 µM
T9 construct: Eurofins Cerep (contract screen)
From the text: as §1

HDAC9 = target: T10, HDAC9 (Homo sapiens, UniProt Q9UKV0); test: Eurofins Cerep safety pharmacology screening; format: biochemical; settings: read-out: Mean % inhibition (n=2); HDAC9, 10 µM
T10 construct: Eurofins Cerep (contract screen)
From the text: as §1

MMP-7 = target: T11, MMP-7 (Homo sapiens, UniProt P09237); test: Eurofins Cerep safety pharmacology screening; format: biochemical; settings: read-out: Mean % inhibition (n=2); MMP-7, 10 µM
T11 construct: Eurofins Cerep (contract screen)
From the text: as §1

MMP-8 = target: T12, MMP-8 (Homo sapiens, UniProt P22894); test: Eurofins Cerep safety pharmacology screening; format: biochemical; settings: read-out: Mean % inhibition (n=2), MMP-8, 10 µM
T12 construct: Eurofins Cerep (contract screen)
From the text: as §1

HDAC8 = target: T13, HDAC8 (Homo sapiens, UniProt Q9BY41); test: Eurofins Cerep safety pharmacology screening; format: biochemical; settings: read-out: Mean % inhibition (n=2); HDAC8, 10 µM
T13 construct: Eurofins Cerep (contract screen)
From the text: as §1

HDAC5 = target: T14, HDAC5 (Homo sapiens, UniProt Q9UQL6); test: Eurofins Cerep safety pharmacology screening; format: biochemical; settings: read-out: Mean % inhibition (n=2); HDAC5, 10 µM
T14 construct: Eurofins Cerep (contract screen)
From the text: as §1

T12 sequence (P22894 101-467): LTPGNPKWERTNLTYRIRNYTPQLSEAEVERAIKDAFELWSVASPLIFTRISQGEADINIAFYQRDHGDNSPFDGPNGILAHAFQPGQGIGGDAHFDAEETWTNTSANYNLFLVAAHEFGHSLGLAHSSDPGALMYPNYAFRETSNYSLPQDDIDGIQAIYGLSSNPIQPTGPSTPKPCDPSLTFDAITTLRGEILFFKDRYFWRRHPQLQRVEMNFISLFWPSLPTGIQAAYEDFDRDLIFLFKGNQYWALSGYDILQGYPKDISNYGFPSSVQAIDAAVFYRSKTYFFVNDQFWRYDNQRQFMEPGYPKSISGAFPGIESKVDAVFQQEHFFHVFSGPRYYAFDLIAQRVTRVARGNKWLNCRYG
T14 sequence (Q9UQL6 whole entry): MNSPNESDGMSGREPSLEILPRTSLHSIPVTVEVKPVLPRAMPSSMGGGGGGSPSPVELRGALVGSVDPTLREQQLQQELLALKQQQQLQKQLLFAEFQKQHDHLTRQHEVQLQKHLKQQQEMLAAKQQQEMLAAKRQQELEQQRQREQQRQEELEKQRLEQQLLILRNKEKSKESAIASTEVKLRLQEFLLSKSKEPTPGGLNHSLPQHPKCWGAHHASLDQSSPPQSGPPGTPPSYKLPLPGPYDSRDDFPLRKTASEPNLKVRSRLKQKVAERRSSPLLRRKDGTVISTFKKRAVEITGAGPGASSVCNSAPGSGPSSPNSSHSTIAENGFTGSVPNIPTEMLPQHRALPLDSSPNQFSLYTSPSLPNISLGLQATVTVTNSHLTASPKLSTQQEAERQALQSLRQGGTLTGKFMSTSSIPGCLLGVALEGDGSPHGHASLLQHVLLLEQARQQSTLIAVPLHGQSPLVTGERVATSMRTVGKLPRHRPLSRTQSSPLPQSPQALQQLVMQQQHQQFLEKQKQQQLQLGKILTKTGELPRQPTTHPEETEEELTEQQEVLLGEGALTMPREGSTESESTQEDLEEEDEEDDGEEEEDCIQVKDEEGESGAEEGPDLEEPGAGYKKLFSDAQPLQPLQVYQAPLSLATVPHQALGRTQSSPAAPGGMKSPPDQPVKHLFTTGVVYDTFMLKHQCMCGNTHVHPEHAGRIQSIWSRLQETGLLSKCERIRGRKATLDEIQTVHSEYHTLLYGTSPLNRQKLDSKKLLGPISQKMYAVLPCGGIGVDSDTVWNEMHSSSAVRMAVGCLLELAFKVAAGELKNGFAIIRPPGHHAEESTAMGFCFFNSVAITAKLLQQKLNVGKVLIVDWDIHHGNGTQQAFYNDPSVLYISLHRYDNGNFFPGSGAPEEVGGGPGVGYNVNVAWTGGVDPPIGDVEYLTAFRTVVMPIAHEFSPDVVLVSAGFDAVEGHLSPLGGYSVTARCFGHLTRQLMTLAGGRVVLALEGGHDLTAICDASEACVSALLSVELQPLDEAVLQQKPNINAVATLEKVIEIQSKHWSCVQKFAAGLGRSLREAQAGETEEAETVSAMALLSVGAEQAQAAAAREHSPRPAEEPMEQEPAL
T3 sequence (P08254 100-477): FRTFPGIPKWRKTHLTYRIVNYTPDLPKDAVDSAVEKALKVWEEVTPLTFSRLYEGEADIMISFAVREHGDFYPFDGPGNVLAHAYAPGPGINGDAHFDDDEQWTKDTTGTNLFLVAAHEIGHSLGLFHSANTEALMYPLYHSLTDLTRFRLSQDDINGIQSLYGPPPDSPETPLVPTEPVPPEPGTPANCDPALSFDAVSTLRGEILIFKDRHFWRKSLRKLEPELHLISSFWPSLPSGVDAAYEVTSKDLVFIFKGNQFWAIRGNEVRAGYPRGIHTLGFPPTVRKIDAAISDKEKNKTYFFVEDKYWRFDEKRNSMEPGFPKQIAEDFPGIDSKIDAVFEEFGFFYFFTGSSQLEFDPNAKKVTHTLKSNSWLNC
T1 sequence (Q8IL11 84-605): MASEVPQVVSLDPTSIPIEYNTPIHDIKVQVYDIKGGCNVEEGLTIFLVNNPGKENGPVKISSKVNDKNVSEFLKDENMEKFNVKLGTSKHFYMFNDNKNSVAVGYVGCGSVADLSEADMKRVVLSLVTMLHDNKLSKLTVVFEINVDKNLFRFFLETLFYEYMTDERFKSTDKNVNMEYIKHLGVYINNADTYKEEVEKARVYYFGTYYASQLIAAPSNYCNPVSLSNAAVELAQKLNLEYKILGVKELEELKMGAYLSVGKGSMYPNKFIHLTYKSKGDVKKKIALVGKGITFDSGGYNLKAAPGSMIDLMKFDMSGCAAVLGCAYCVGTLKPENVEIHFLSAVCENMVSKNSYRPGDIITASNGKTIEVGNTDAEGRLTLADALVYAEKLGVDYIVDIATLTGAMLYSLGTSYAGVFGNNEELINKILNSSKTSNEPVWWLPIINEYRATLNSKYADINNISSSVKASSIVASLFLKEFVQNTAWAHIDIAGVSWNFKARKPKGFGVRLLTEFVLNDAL
T9 sequence (Q8WUI4 whole entry): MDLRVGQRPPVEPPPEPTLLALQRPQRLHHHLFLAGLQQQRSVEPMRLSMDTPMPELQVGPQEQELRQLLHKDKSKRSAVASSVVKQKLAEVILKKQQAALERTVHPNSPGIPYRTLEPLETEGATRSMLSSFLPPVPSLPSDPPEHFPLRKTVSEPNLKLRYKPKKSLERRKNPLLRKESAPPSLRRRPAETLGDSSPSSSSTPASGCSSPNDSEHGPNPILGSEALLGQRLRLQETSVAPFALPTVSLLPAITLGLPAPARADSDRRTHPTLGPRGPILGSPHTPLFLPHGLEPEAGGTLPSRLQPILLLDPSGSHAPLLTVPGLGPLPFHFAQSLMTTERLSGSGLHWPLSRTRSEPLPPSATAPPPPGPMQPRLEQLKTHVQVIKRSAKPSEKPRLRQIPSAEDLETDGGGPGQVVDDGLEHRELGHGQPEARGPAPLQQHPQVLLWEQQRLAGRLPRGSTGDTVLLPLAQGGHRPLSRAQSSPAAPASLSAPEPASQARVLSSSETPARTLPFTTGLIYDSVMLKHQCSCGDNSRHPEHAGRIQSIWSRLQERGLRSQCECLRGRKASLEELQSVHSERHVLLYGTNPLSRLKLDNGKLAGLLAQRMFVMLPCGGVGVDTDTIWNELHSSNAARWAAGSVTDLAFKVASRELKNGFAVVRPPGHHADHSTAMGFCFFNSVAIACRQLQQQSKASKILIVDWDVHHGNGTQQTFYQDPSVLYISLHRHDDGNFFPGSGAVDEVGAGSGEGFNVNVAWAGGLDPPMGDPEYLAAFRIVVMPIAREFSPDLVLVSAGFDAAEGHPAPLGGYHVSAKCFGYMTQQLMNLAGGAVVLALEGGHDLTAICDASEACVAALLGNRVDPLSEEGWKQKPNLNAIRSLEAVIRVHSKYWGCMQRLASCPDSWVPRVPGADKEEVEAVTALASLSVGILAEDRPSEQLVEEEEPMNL
T13 sequence (Q9BY41 whole entry): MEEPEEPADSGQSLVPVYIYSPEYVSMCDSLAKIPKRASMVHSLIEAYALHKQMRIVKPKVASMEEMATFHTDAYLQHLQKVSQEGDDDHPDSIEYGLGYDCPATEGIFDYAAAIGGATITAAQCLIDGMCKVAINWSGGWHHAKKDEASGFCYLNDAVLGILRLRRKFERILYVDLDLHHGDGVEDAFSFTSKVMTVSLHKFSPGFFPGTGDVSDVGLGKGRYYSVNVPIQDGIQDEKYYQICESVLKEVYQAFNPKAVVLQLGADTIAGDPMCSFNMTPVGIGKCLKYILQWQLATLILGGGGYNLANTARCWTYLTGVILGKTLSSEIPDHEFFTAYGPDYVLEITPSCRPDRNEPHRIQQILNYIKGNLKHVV
T8 sequence (P08253 110-660): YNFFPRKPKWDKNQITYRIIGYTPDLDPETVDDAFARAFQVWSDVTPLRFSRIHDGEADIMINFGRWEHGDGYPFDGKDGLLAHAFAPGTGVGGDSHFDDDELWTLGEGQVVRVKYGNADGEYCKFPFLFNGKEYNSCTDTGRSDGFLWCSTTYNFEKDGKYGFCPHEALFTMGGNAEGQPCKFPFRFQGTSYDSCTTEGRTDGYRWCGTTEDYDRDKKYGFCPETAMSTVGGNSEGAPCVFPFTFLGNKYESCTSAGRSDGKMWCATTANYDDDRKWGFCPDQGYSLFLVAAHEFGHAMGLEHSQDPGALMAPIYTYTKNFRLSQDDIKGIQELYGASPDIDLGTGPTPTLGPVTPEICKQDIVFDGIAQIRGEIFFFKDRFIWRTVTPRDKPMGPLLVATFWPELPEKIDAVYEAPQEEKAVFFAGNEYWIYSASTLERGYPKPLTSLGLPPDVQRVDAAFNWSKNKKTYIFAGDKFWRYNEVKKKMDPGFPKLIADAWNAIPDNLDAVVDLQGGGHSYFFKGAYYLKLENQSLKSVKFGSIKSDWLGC
T4 sequence (Q92769 whole entry): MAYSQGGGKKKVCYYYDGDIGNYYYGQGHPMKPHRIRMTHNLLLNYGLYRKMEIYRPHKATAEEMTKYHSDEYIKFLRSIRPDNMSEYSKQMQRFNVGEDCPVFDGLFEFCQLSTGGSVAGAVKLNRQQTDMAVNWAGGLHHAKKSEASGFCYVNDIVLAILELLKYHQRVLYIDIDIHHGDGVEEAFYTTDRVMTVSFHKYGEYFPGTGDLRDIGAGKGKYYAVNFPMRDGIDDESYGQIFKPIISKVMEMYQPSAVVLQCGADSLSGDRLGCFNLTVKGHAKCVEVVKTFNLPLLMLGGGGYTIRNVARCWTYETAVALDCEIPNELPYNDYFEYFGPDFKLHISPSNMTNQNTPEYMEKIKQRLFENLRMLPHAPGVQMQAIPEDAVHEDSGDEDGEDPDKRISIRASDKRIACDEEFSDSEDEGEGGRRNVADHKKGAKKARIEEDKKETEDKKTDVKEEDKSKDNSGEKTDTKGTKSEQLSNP
T11 sequence (P09237 95-267): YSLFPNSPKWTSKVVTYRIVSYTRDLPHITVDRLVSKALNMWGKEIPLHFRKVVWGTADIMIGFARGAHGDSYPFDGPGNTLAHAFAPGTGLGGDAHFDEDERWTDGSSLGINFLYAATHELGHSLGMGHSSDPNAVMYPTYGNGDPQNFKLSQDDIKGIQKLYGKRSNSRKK

SMILES: CC(C)(C)CC(=O)NC(C(=O)NO)c1ccc(-c2cc(F)c(F)c(F)c2)cc1 (centres unmarked) [MMV1557817, N-(2-(hydroxyamino)−2-oxo-1-(3′,4′,5′-trifluoro-[1,1′-biphenyl]-4-yl)ethyl)-3,3-dimethylbutanamide]
- unbound in Albumax medium ([1]; Albumax medium): 15.5%
- Albumax media binding ([1]; Albumax medium used for in vitro activity assessment): 84.5%
- microsomal CLint at 1 µM ([2]; human liver microsomes): 11 µL/min/mg
- microsomal CLint at 1 µM ([2]; mouse liver microsomes): 23 µL/min/mg
- microsomal CLint at 1 µM ([2]; rat liver microsomes): 29 µL/min/mg
- Ki [3]: 300 nM
- Ki (PfA-M17): 112 nM
- inhibition at 10 µM (MMP-9): 46.3%
- inhibition at 10 µM (MMP-3): -0.8%
- inhibition at 10 µM (HDAC2): 3%
- inhibition at 10 µM (HDAC1): 2.8%
- inhibition at 10 µM (MMP-14): 24.1%
- inhibition at 10 µM (HDAC10): 5.3%
- inhibition at 10 µM (MMP-2): 39.8%
- inhibition at 10 µM (HDAC7): 7.7%
- inhibition at 10 µM (HDAC9): -3.6%
- inhibition at 10 µM (MMP-7): -6.7%
- inhibition at 10 µM (MMP-8): 52.6%
- inhibition at 10 µM (HDAC8): 6.3%
- inhibition at 10 µM (HDAC5): -2.8%
